Measured values reported in article PMC9962741, “In Silico and In Vitro Screening of Serine Racemase Agonist and In Vivo Efficacy on Alzheimer’s Disease Drosophila melanogaster” (Pharmaceuticals, 2023).

Target: T1, serine racemase (SRR) (Homo sapiens, UniProt Q9GZT4)
T1 construct: SRR Enzyme Human Recombinant (ENZ-232, ProSpec)
T1 sequence (Q9GZT4 1-340): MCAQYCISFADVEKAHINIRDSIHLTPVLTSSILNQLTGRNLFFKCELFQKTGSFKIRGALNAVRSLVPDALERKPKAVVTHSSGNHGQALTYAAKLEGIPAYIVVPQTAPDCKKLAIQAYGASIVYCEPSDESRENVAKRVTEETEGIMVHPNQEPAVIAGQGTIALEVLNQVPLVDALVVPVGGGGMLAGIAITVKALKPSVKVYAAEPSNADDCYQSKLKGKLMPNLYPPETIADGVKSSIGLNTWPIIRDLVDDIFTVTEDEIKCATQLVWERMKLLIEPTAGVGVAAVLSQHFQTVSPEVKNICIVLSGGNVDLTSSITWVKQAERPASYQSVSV
Assay: recombinant SRR racemization of L-serine, D-serine read by coupled DAAO/HRP luminol luminescence (activation)
Type: biochemical

% increase of SRR activity: 200 % increase of SRR activity
SMILES: NC(CSc1nc2ccccn2c1[N+](=O)[O-])C(=O)O (stereo not shown) [NSC294149, 2-amino-3-(3-nitroimidazo[1,2-a]pyridin-2-yl)sulfanylpropanoic acid]
